Test results published in patent US10464926B2, “Heterobicyclic compounds and their use for the treatment of tuberculosis” (OTSUKA PHARMACEUTICAL CO., LTD., priority 2014, dated 2019).

Structure (SMILES)	melting point
Cc1cc(N2CCC(O)(COc3ccc(F)c4c3CCC(=O)N4)CC2)ccc1Cl	216.1 to 216.3 °C
O=C1CCc2c(OC[C@]3(O)CCN(c4ccc(Br)cc4F)C[C@H]3O)cc(F)c(Cl)c2N1 (relative stereo)	194 °C
O=C1CCc2c(OC[C@]3(O)CCN(c4c(F)cc(OC(F)F)cc4F)C[C@H]3O)ccc(F)c2N1 [Example 315]	166 °C
CCc1ccccc1N1CCC(O)(COc2ccc(F)c3c2CCC(=O)N3)CC1	178.6 to 179.3 °C
O=C1CCc2c(OC[C@]3(O)CCN(c4ccc(Br)cc4F)C[C@H]3O)ccc(Cl)c2N1 (relative stereo) [Example 269]	190 to 192 °C
CC(C)Oc1cc(N2CCC(O)(COc3ccc(Cl)c4c3CCC(=O)N4)CC2)c(F)cc1Cl	173.3 to 173.5 °C
O=C1CCc2c(OCC3(O)CCN(c4c(F)cc(Br)cc4F)CC3)ccc(F)c2N1	217.7 to 217.9 °C
O=C1CCc2c(OC[C@]3(O)CCN(c4cc(F)c(Cl)cc4F)C[C@H]3O)ccc(F)c2N1	199 to 199.7 °C
CC(C)c1ccc(N2CCC(O)(COc3ccc(F)c4c3CCC(=O)N4)CC2)cc1	194.9 to 195 °C
O=C1CCc2c(OCC3(O)CCN(c4ccc5ccccc5n4)CC3)ccc(F)c2N1	198 to 199 °C
O=C1CCc2c(OCC3(O)CCN(c4c(F)cccc4Cl)CC3)ccc(F)c2N1	212 to 213 °C
O=C1CCc2c(OC[C@@]3(O)CCN(c4ccc(Cl)cc4F)C[C@@H]3O)ccc(F)c2N1 (relative stereo)	191.9 to 193.5 °C
O=C1CCc2c(OC[C@]3(O)CCN(c4ccc(OC(F)(F)F)cc4F)C[C@H]3O)ccc(F)c2N1	161.6 to 161.9 °C
CCOCc1ccc(N2CCC(O)(COc3ccc(F)c4c3CCC(=O)N4)CC2)c(F)c1	154.2 to 154.5 °C
O=C1CCc2c(OC[C@]3(O)CCN(c4c(F)cc(Cl)cc4F)C[C@H]3F)ccc(F)c2N1 (relative stereo) [Example 440]	222 to 223 °C
COC1(COc2ccc(F)c3c2CCC(=O)N3)CCN(c2ncc(Cl)cc2Cl)CC1	181 to 182 °C
CCOc1cc(F)c(N2CCC(O)(COc3ccc(F)c4c3CCC(=O)N4)CC2)cc1F	174.1 to 174.5 °C
O=C1CCc2c(OC[C@]3(O)CCN(c4c(F)cc(Br)cc4F)C[C@H]3O)cc(F)c(F)c2N1	204.5 to 204.6 °C
O=C1CCc2c(OCC3(O)CCN(c4cc(F)c(Cl)cc4F)CC3)ccc(F)c2N1	185.1 to 185.2 °C
O=C1CCc2c(OCC3(O)CCN(c4cc5c(cc4F)OC(F)(F)O5)CC3)cc(F)c(F)c2N1	258.9 to 259 °C (dec.)
O=C1CCc2c(OC[C@]3(O)CCN(c4c(F)cc(OCC(F)(F)F)cc4F)C[C@H]3O)ccc(F)c2N1 (relative stereo) [Example 310]	201 to 202 °C
CCOc1cc(F)c(N2CCC(O)(COc3ccc(F)c4c3CCC(=O)N4)CC2)cc1OC	190.8 to 191.1 °C

Now from value to molecule:

melting point	Structure (SMILES)
207.4 to 207.6 °C	CSc1ccc(N2CCC(O)(COc3ccc(F)c4c3CCC(=O)N4)CC2)c(Cl)c1
186.5 to 186.7 °C	O=C1CCc2c(OCC3(O)CCN(c4ccc(OCCF)cc4F)CC3)ccc(F)c2N1
208.9 to 209.3 °C	CCOc1c(F)c(F)c(N2CCC(O)(COc3ccc(F)c4c3CCC(=O)N4)CC2)c(F)c1F
183 to 184 °C	O=C1CCc2c(OC[C@]3(O)CCN(c4ccc(Br)cc4F)C[C@H]3O)ccc(Cl)c2N1 [Example 271]
191 to 192 °C	O=C1CCc2c(OC[C@]3(O)CCN(c4c(F)cc(F)cc4F)C[C@H]3O)ccc(F)c2N1 [Example 306]
199 to 201 °C	O=C1CCc2c(OC[C@]3(O)CCN(c4c(F)cc(Cl)cc4F)C[C@H]3O)cc(F)c(F)c2N1
225.3 to 225.7 °C	CC(C)c1cc(N2CCC(O)(COc3ccc(F)c4c3CCC(=O)N4)CC2)c(F)cc1Cl
148.6 to 148.7 °C	O=C1CCc2c(OCC3(O)CCN(c4ccc(OCC(F)(F)F)cc4F)CC3)ccc(Cl)c2N1
216.1 °C	O=C1CCc2c(OCC3(O)CCN(c4ccc(C(F)(F)F)cc4)CC3)ccc(F)c2N1
143.6 to 143.7 °C	O=C1CCc2c(OCC3(O)CCN(c4c(F)cc(OC(F)F)cc4F)CC3)ccc(Cl)c2N1
203.6 to 203.8 °C	O=C1CCc2c(OCC3(O)CCN(c4c(Cl)cccc4Cl)CC3)ccc(F)c2N1
138 to 147 °C	Cn1c(N2CC[C@@](O)(COc3ccc(F)c4c3CCC(=O)N4)[C@H](O)C2)nc2ccccc21
228.7 °C	O=C1CCc2c(OCC3(O)CCN(c4cccc(Cl)c4Cl)CC3)ccc(F)c2N1
195.5 to 195.6 °C	O=C1CCc2c(OC[C@]3(O)CCN(c4ccc(Cl)cc4F)C[C@H]3O)ccc(Cl)c2N1 (relative stereo) [Example 334]
192 to 192.3 °C	O=C1CCc2c(OCC3(O)CCN(c4ccc(Cl)cn4)CC3)ccc(F)c2N1
174.2 to 174.3 °C	O=C1CCc2c(OCC3(O)CCN(c4ccc(OC(F)(F)F)cc4F)CC3)ccc(F)c2N1
169 to 169.2 °C	CCOc1cc(F)c(N2CCC(O)(COc3ccc(Cl)c4c3CCC(=O)N4)CC2)cc1F

melting point	Structure (SMILES)
255 to 256 °C	O=c1ccc2c(OCC3(O)CCN(c4ccc(Cl)cc4F)CC3)ccc(F)c2[nH]1
149.7 to 149.9 °C	O=C1CCc2c(OCC3(O)CCN(c4ccc(OC(F)(F)F)cc4F)CC3)ccc(Cl)c2N1
184 to 185 °C	O=C1CCc2c(OC[C@@]3(O)CCN(c4cc(F)c(Cl)cc4F)C[C@H]3O)ccc(F)c2N1 (relative stereo)
185.1 to 185.9 °C	CCCOc1ccc(N2CCC(O)(COc3ccc(F)c4c3CCC(=O)N4)CC2)c(F)c1
190 to 191 °C	O=C1CCc2c(OC[C@]3(O)CCN(c4ccc(Cl)cc4F)C[C@@H]3F)ccc(F)c2N1 (relative stereo)
247.4 to 247.5 °C	O=c1ccc2c(OC[C@]3(O)CCN(c4c(F)cc(Cl)cc4F)C[C@H]3O)ccc(F)c2[nH]1 [Example 367]
160.7 to 160.9 °C	CSc1ccc(N2CCC(O)(COc3ccc(Cl)c4c3CCC(=O)N4)CC2)c(Cl)c1
167 to 169 °C	O=C1CCc2c(OC[C@]3(O)CCN(c4c(F)cc(OC(F)F)cc4F)C[C@H]3O)ccc(F)c2N1 (relative stereo) [Example 314]
198 to 199 °C	O=C1CCc2c(OCC3(O)CCN(c4nccc5ccccc45)CC3)ccc(F)c2N1
237.7 to 238.6 °C	O=C1CCc2c(OC[C@]3(O)CCN(c4cc(Cl)c(F)cc4Cl)C[C@H]3O)ccc(Cl)c2N1
163 to 165 °C	CC(=O)O[C@@H]1CN(c2c(F)cc(Cl)cc2F)CC[C@@]1(O)COc1ccc(F)c2c1CCC(=O)N2
175 to 177 °C	N#Cc1cccc(N2CCC(O)(COc3ccc(F)c4c3CCC(=O)N4)CC2)c1
186 to 187 °C	CO[C@H]1CN(c2ncc(Cl)cc2Cl)CC[C@@]1(O)COc1ccc(F)c2c1CCC(=O)N2 (relative stereo)
169 to 170.4 °C	CCOc1cnc(N2CCC(O)(COc3ccc(Cl)c4c3CCC(=O)N4)CC2)c(Cl)c1
199 to 202 °C	CCOc1cc(F)c(N2CC[C@@](O)(COc3ccc(F)c4c3CCC(=O)N4)[C@H](O)C2)c(F)c1 (relative stereo) [Example 316]
214 to 215 °C	O=C1CCc2c(NCC3(O)CCN(c4ccc(F)cc4Cl)CC3)ccc(F)c2N1
